Measured values: PubChem BioAssay AID1919004 (Molecular Pharmacology Branch, DTP, NCI, 2023)
pIC50: −log10 of the molar value.

Test system: 883617-216-R-J1-PDC complex spheroids, growth, % test/control
Test: Anticancer human tumor 883617-216-R-J1-PDC patient-derived bladder carcinoma cell line growth inhibition [AhR]
Details: for pIC50: curve of first compound; for viability, T/C: stronger effect = lower value; active means viability on the fitted dose curve at most 10% of control; inactive means the rest
In short: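 Complex tumor spheroids co-cultured with HUVEC and human MSC stroma; AhR antagonists tested in combination with standard-of-care and investigational agents. Top concentration at or near clinical Cmax (else 10 microM), half-log dilutions; growth expressed as percent test/control.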

[1] = second compound 0.1 µM, first compound 0.0316 µM
[2] = second compound 0.1 µM, first compound 0.1 µM
[3] = second compound 0.1 µM, first compound 0.316 µM
[4] = second compound 0.1 µM, first compound 1 µM
[5] = second compound 0.1 µM, first compound 3.16 µM
[6] = second compound 0.1 µM, first compound 10 µM
[7] = second compound 0.316 µM, first compound 0.0316 µM
[8] = second compound 0.316 µM, first compound 0.1 µM
[9] = second compound 0.316 µM, first compound 0.316 µM
[10] = second compound 0.316 µM, first compound 1 µM
[11] = second compound 0.316 µM, first compound 3.16 µM
[12] = second compound 0.316 µM, first compound 10 µM
[13] = second compound 1 µM, first compound 0.0316 µM
[14] = second compound 1 µM, first compound 0.1 µM
[15] = second compound 1 µM, first compound 0.316 µM
[16] = second compound 1 µM, first compound 1 µM
[17] = second compound 1 µM, first compound 3.16 µM
[18] = second compound 1 µM, first compound 10 µM
[19] = second compound 3.16 µM, first compound 0.0316 µM
[20] = second compound 3.16 µM, first compound 0.1 µM
[21] = second compound 3.16 µM, first compound 0.316 µM
[22] = second compound 3.16 µM, first compound 1 µM
[23] = second compound 3.16 µM, first compound 3.16 µM
[24] = second compound 3.16 µM, first compound 10 µM
[25] = second compound 10 µM, first compound 0.0316 µM
[26] = second compound 10 µM, first compound 0.1 µM
[27] = second compound 10 µM, first compound 0.316 µM
[28] = second compound 10 µM, first compound 1 µM
[29] = second compound 10 µM, first compound 3.16 µM
[30] = second compound 10 µM, first compound 10 µM
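Further: exposure lasted 7 days after dosing on day 3 of spheroid growth.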

COc1cc(Nc2ncc3c(n2)-c2ccc(Cl)cc2C(c2c(F)cccc2OC)=NC3)ccc1C(=O)O + CC(CO)NC(=O)c1cc(-c2ccc(Cl)cc2)nn(-c2cnn(C)c2)c1=O
inactive: viability, T/C [1] 140% | viability, T/C [2] 128% | viability, T/C [3] 77.8% | viability, T/C [4] 97% | viability, T/C [5] 86.6% | viability, T/C [6] 120% | viability, T/C [7] 128% | viability, T/C [8] 85% | viability, T/C [9] 80.5% | viability, T/C [10] 87% | viability, T/C [11] 60.8% | viability, T/C [12] 95.6% | viability, T/C [13] 124% | viability, T/C [14] 123% | viability, T/C [15] 93.3% | viability, T/C [16] 48.3% | viability, T/C [17] 103% | viability, T/C [18] 101% | viability, T/C [19] 77% | viability, T/C [20] 103% | viability, T/C [21] 135% | viability, T/C [22] 105% | viability, T/C [23] 70.9% | viability, T/C [24] 70.6% | viability, T/C [25] 130% | viability, T/C [26] 71% | viability, T/C [27] 121% | viability, T/C [28] 125% | viability, T/C [29] 71.7% | viability, T/C [30] 88.4%
< 5.00: pIC50 (second compound 0.1 µM) | pIC50 (second compound 0.316 µM) | pIC50 (second compound 1 µM) | pIC50 (second compound 3.16 µM) | pIC50 (second compound 10 µM)

Cn1ncnc1C1c2n[nH]c(=O)c3cc(F)cc(c23)NC1c1ccc(F)cc1 (stereo not given) + CC(CO)NC(=O)c1cc(-c2ccc(Cl)cc2)nn(-c2cnn(C)c2)c1=O
< 7.00: pIC50 (second compound 0.1 µM) | pIC50 (second compound 0.316 µM) | pIC50 (second compound 1 µM) | pIC50 (second compound 3.16 µM) | pIC50 (second compound 10 µM)
inactive: viability, T/C (second compound 0.1 µM, first compound 0.000316 µM) 72.7% | viability, T/C (second compound 0.1 µM, first compound 0.001 µM) 96.6% | viability, T/C (second compound 0.1 µM, first compound 0.00316 µM) 77.3% | viability, T/C (second compound 0.1 µM, first compound 0.01 µM) 57.7% | viability, T/C [1] 55.6% | viability, T/C [2] 93% | viability, T/C (second compound 0.316 µM, first compound 0.000316 µM) 90.4% | viability, T/C (second compound 0.316 µM, first compound 0.001 µM) 92.8% | viability, T/C (second compound 0.316 µM, first compound 0.00316 µM) 78.6% | viability, T/C (second compound 0.316 µM, first compound 0.01 µM) 75.8% | viability, T/C [7] 86% | viability, T/C [8] 98.7% | viability, T/C (second compound 1 µM, first compound 0.000316 µM) 59.7% | viability, T/C (second compound 1 µM, first compound 0.001 µM) 92.4% | viability, T/C (second compound 1 µM, first compound 0.00316 µM) 75.1% | viability, T/C (second compound 1 µM, first compound 0.01 µM) 59.8% | viability, T/C [13] 87.6% | viability, T/C [14] 89.9% | viability, T/C (second compound 3.16 µM, first compound 0.000316 µM) 77.3% | viability, T/C (second compound 3.16 µM, first compound 0.001 µM) 51% | viability, T/C (second compound 3.16 µM, first compound 0.00316 µM) 123% | viability, T/C (second compound 3.16 µM, first compound 0.01 µM) 82.8% | viability, T/C [19] 50.2% | viability, T/C [20] 69.2% | viability, T/C (second compound 10 µM, first compound 0.000316 µM) 78.6% | viability, T/C (second compound 10 µM, first compound 0.001 µM) 68.8% | viability, T/C (second compound 10 µM, first compound 0.00316 µM) 70.6% | viability, T/C (second compound 10 µM, first compound 0.01 µM) 72% | viability, T/C [25] 55.7% | viability, T/C [26] 80.9%

NS(=O)(=O)OCC1CC(n2ccc3c(NC4CCc5ccccc54)ncnc32)CC1O (stereo not given) + CC(CO)NC(=O)c1cc(-c2ccc(Cl)cc2)nn(-c2cnn(C)c2)c1=O
inactive: viability, T/C [1] 96.4% | viability, T/C [2] 90.6% | viability, T/C [3] 87.1% | viability, T/C [4] 40.6% | viability, T/C [5] 21% | viability, T/C [6] 27.2% | viability, T/C [7] 55% | viability, T/C [8] 94% | viability, T/C [9] 63.4% | viability, T/C [10] 61.5% | viability, T/C [11] 28.2% | viability, T/C [12] 29.2% | viability, T/C [13] 64.6% | viability, T/C [14] 55.6% | viability, T/C [15] 109% | viability, T/C [16] 67.6% | viability, T/C [17] 30.7% | viability, T/C [18] 42% | viability, T/C [19] 75.8% | viability, T/C [20] 108% | viability, T/C [21] 55.6% | viability, T/C [22] 65.9% | viability, T/C [23] 27% | viability, T/C [24] 72.7% | viability, T/C [25] 72.3% | viability, T/C [26] 109% | viability, T/C [27] 80.1% | viability, T/C [28] 51.1% | viability, T/C [29] 32.4% | viability, T/C [30] 16.4%
5.00: pIC50 (second compound 3.16 µM)
6.10: pIC50 (second compound 0.1 µM)
5.82: pIC50 (second compound 0.316 µM)
5.72: pIC50 (second compound 1 µM)
5.93: pIC50 (second compound 10 µM)

O=C(C=Cc1cccc(S(=O)(=O)Nc2ccccc2)c1)NO + CC(CO)NC(=O)c1cc(-c2ccc(Cl)cc2)nn(-c2cnn(C)c2)c1=O
6.10: pIC50 (second compound 1 µM)
5.74: pIC50 (second compound 10 µM)
inactive: viability, T/C [1] 88.5% | viability, T/C [2] 96.9% | viability, T/C [3] 78.1% | viability, T/C [4] 86.6% | viability, T/C [5] 55% | viability, T/C [7] 95.2% | viability, T/C [8] 87.6% | viability, T/C [9] 85.7% | viability, T/C [10] 105% | viability, T/C [11] 54.7% | viability, T/C [13] 75.3% | viability, T/C [14] 62.7% | viability, T/C [15] 113% | viability, T/C [16] 41.5% | viability, T/C [17] 41.6% | viability, T/C [18] 1.68% | viability, T/C [19] 104% | viability, T/C [20] 66% | viability, T/C [21] 67.6% | viability, T/C [22] 69.5% | viability, T/C [23] 36.6% | viability, T/C [25] 101% | viability, T/C [26] 89.5% | viability, T/C [27] 101% | viability, T/C [28] 54% | viability, T/C [29] 40.9%
5.45: pIC50 (second compound 0.1 µM)
5.46: pIC50 (second compound 0.316 µM)
5.82: pIC50 (second compound 3.16 µM)
active: viability, T/C [6] 7.64% | viability, T/C [12] 1.72% | viability, T/C [24] 6.34% | viability, T/C [30] 1.34%
